The results in this text go back to patent US9260435B2, “Substituted imidazopyrazines as Akt kinase inhibitors” (Bayer Intellectual Property GmbH, priority 2012, dated 2016).

Assay [1] deals with His-tagged human recombinant kinase full-length Akt2 (Homo sapiens (Human), UniProt P31751). As to the kind of experiment: Akt2 kinase assay (TR-FRET). The class given is biochemical. The conditions noted are these: 10 μM ATP, read-out: Akt2, median IC50. From the text: Biological Assay 2.0: Akt2 Kinase Assay
Akt2 inhibitory activity of compounds of the present invention was quantified employing the Akt2 TR-FRET assay as described in the following paragraphs.
His-tagged human recombinant kinase full-length Akt2 expressed in insect cells and activated by PDK1 was purchased from Invitrogen (part number PV 3975). As substrate for the kinase reaction the biotinylated peptide biotin-Ahx-KKLNRTLSFAEPG (C-terminus in amide form) was used which can be purchased e.g. from the company Biosynthan GmbH (Berlin-Buch, Germany).
(§1) For the assay 50 nl of a 100 fold concentrated solution of the test compound in DMSO was pipetted into a black low volume 384 well microtiter plate (Greiner Bio-One, Frickenhausen, Germany), 2 μl of a solution of Akt2 in assay buffer [50 mM TRIS/HCl pH 7.5, 5 mM MgCl2, 1 mM dithiothreitol, 0.02% (v/v) Triton X-100 (Sigma)] were added and the mixture was incubated for 15 min at 22° C. to allow prebinding of the test compounds to the enzyme before the start of the kinase reaction. Then the kinase reaction was started by the addition of 3 μl of a solution of adenosine-tri-phosphate (ATP, 16.7 μM=>final conc. in the 5 μl assay volume is 10 μM) and substrate (1.67 μM=>final conc. in the 5 μl assay volume is 1 μM) in assay buffer and the resulting mixture was incubated for a reaction time of 60 min at 22° C. The concentration of Akt2 in the assay was adjusted depending of the activity of the enzyme lot and was chosen appropriate to have the assay in the linear range, typical enzyme concentrations were in the range of about 0.2 ng/μl (final conc. in the 5 μl assay volume).
(§2) The reaction was stopped by the addition of 5 μl of a solution of HTRF detection reagents (200 nM streptavidine-XL665 [Cisbio] and 1.5 nM anti-phosho-Serine antibody [Millipore, cat. #35-001] and 0.75 nM LANCE Eu-W 1024 labeled anti-mouse IgG antibody [Perkin Elmer]) in an aqueous EDTA-solution (100 mM EDTA, 0.1% (w/v) bovine serum albumin in 50 mM HEPES/NaOH pH 7.5).
(§3) The resulting mixture was incubated 1 h at 22° C. to allow the binding of the biotinylated phosphorylated peptide to the streptavidine-XL665 and the antibodies. Subsequently the amount of phosphorylated substrate was evaluated by measurement of the resonance energy transfer from the anti-mouse-IgG-Eu-Chelate to the streptavidine-XL665. Therefore, the fluorescence emissions at 620 nm and 665 nm after excitation at 350 nm was measured in a TR-FRET reader, e.g. a Rubystar (BMG Labtechnologies, Offenburg, Germany) or a Viewlux (Perkin-Elmer). The ratio of the emissions at 665 nm and at […] was taken as the measure for the amount of phosphorylated substrate. The data were normalised (enzyme reaction without inhibitor=0% inhibition, all other assay components but no enzyme=100% inhibition).
A general note: In TR-FRET formats the signal depends on donor and acceptor labels being close together.

For assay [2], the target named is His-tagged human recombinant kinase full-length Akt1 (Homo sapiens (Human), UniProt P31749). Description: Akt1 kinase assay (TR-FRET). It is filed as biochemical. Particulars: 10 μM ATP, read-out: Akt1, median IC50.
From the text: Biological Assay 1.0: Akt1 Kinase Assay
Akt1 inhibitory activity of compounds of the present invention was quantified employing the Akt1 TR-FRET assay as described in the following paragraphs.
His-tagged human recombinant kinase full-length Akt1 expressed in insect cells was purchased form Invitrogen (part number PV 3599). As substrate for the kinase reaction the biotinylated peptide biotin-Ahx-KKLNRTLSFAEPG (C-terminus in amide form) was used which can be purchased e.g. from the company Biosynthan GmbH (Berlin-Buch, Germany).
as §1, with “Akt1” for “Akt2”, “0.05” for “0.2”
as §2
as §3, with “HTRF” for “TR-FRET”

Sequence of His-tagged human recombinant kinase full-length Akt2 (P31751 whole entry): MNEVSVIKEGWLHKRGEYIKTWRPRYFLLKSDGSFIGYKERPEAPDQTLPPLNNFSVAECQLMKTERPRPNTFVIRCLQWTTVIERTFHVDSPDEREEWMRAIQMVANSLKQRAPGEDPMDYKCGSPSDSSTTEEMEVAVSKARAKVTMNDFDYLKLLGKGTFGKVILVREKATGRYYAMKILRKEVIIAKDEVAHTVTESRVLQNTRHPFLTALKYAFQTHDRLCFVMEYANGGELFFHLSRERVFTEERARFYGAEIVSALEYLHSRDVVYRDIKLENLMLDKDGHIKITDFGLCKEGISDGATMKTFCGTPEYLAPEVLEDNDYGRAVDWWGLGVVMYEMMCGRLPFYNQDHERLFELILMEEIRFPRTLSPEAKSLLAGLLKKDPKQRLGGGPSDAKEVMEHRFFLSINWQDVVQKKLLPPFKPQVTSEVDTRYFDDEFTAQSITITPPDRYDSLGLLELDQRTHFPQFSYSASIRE
Sequence of His-tagged human recombinant kinase full-length Akt1 (P31749 whole entry): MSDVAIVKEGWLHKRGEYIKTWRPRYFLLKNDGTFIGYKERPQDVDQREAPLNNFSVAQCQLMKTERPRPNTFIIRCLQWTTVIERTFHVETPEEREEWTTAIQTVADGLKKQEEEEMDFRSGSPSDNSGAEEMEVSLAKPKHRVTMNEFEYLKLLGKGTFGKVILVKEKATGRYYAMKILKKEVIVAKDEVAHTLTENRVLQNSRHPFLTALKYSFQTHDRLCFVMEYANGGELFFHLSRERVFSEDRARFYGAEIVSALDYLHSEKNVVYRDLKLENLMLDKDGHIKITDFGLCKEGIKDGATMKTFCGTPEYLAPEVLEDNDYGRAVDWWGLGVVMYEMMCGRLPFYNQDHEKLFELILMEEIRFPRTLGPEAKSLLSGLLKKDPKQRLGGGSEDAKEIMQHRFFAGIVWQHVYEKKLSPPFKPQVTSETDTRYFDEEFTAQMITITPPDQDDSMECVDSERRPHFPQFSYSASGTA

Turning to `COc1nc(C(N)=O)cn2c(-c3ccccc3)c(-c3ccc(C4(N)CCC4)cc3)nc12` [Example 8, 2-[4-(1-Aminocyclobutyl)phenyl]-8-methoxy-3-phenylimidazo[1,2-a]pyrazine-6-carboxamide], the results for the concentration for half-maximal inhibition (IC50) in assay [1] and in assay [2] were 14 nM and 29 nM, respectively.
The corresponding values for `NC(=O)c1cn2c(-c3ccccc3)c(-c3ccc(C4(N)CCC4)cc3)nc2cn1` [Example 6, 2-[4-(1-Aminocyclobutyl)phenyl]-3-phenylimidazo[1,2-a]pyrazine-6-carboxamide] are 97 nM and 110 nM.
The corresponding values for `COc1nc(Br)cn2c(-c3ccccc3)c(-c3ccc(C4(N)CCC4)cc3)nc12` [Example 3, 1-[4-(6-Bromo-8-methoxy-3-phenylimidazo[1,2-a]pyrazin-2-yl)phenyl]cyclobutanamine] are 33 nM and 22 nM.
As for `COC(=O)c1cn2c(-c3ccccc3)c(-c3ccc(C4(N)CCC4)cc3)nc2c(OC)n1` [Example 7, Methyl 2-[4-(1-aminocyclobutyl)phenyl]-8-methoxy-3-phenylimidazo[1,2-a]pyrazine-6-carboxylate], the IC50 – broadly, the concentration at which inhibition is half-maximal – in assay [1] turned out to be 86 nM; in assay [2] it was 64 nM.
The corresponding values for `Cc1cn2c(-c3ccccc3)c(-c3ccc(C4(N)CCC4)cc3)nc2c(C)n1` [Example 2, 1-[4-(6,8-Dimethyl-3-phenylimidazo[1,2-a]pyrazin-2-yl)phenyl]-cyclobutanamine] are 220 nM and 61 nM.
The corresponding values for `CCc1cn2c(-c3ccccc3)c(-c3ccc(C4(N)CCC4)cc3)nc2c(OC)n1` [Example 4, 1-[4-(6-Ethyl-8-methoxy-3-phenylimidazo[1,2-a]pyrazin-2-yl)phenyl]cyclobutanamine] are 34 nM and 110 nM.
